Test results: ChEMBL document CHEMBL3132769, “Fragment growing to retain or alter the selectivity of anchored kinase hinge-binding fragments” (Medchemcomm, 2014)

Columns and labels:
[1] = molecular target: Protein kinase C beta type (Homo sapiens) (UniProt P05771); assay: Inhibition of human full length PKC beta2 expressed in baculovirus assessed as substrate phosphorylation using fluorescence-labelled peptides as substrate at 0.06 uM after 90 mins by microfluidic peptide phosphorylation assay
[2] = molecular target: T1, Aurora kinase C (Homo sapiens) (UniProt Q9UQB9); assay: Inhibition of human full length AurC expressed in baculovirus assessed as substrate phosphorylation using fluorescence-labelled peptides as substrate at 0.06 uM after 90 mins by microfluidic peptide phosphorylation assay
T1 sequence (whole entry): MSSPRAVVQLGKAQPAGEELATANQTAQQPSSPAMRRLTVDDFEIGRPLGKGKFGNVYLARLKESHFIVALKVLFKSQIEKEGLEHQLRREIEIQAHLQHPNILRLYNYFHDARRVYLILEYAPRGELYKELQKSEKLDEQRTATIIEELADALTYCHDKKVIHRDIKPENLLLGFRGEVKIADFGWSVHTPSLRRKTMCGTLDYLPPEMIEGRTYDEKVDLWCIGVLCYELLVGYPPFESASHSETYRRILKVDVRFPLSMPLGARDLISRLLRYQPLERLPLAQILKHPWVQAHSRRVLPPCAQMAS

[3] = molecular target: T2, Cytoplasmic tyrosine-protein kinase BMX (Homo sapiens) (UniProt P51813); assay: Inhibition of human full length BMX expressed in baculovirus assessed as substrate phosphorylation using fluorescence-labelled peptides as substrate at 70 uM after 90 mins by microfluidic peptide phosphorylation assay
T2 sequence (whole entry): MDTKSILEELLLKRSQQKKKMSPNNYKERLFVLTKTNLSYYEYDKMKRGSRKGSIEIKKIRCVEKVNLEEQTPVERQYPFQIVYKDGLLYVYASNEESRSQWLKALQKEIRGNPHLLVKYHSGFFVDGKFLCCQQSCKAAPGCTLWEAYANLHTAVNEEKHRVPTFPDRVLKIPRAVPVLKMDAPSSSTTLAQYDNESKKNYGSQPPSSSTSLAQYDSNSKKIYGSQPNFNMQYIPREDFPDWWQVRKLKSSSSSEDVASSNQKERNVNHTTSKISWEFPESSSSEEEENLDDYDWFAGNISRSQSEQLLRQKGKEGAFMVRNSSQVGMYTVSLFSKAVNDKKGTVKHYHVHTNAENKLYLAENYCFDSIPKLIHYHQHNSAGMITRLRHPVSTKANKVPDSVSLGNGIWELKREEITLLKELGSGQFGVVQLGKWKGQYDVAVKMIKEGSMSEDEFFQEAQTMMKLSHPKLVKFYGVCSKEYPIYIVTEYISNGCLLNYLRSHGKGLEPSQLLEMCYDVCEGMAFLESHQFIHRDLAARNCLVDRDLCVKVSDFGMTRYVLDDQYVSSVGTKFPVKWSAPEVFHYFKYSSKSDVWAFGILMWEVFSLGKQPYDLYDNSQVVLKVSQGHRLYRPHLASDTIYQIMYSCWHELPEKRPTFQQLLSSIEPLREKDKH

[4] = molecular target: T3, Serine/threonine-protein kinase BRSK1 (Homo sapiens) (UniProt Q8TDC3); assay: Inhibition of human full length BRSK1 expressed in baculovirus assessed as substrate phosphorylation using fluorescence-labelled peptides as substrate at 0.2 uM after 90 mins by microfluidic peptide phosphorylation assay
T3 sequence (whole entry): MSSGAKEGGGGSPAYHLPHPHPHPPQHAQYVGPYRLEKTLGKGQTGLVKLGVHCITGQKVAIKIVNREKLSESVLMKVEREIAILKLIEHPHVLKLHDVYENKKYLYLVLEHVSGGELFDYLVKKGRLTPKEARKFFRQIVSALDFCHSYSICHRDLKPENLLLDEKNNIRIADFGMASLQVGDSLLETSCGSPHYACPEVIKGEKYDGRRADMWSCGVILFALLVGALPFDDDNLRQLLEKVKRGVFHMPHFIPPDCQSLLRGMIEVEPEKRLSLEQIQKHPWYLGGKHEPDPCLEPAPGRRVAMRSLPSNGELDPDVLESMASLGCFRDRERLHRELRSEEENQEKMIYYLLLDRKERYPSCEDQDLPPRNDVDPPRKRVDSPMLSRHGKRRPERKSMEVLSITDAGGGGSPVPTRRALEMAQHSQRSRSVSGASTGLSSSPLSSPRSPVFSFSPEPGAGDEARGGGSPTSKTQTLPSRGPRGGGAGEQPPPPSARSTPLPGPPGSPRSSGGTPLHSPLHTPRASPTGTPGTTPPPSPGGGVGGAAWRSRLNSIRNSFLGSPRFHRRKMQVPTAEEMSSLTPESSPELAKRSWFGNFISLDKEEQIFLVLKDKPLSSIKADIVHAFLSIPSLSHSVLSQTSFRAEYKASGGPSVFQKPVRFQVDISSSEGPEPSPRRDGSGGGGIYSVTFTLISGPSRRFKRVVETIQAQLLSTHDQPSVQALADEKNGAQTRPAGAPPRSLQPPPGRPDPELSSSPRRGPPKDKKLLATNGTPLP

[5] = molecular target: Serine/threonine-protein kinase MARK1 (Homo sapiens) (UniProt Q9P0L2); assay: Inhibition of human full length MARK1 expressed in baculovirus assessed as substrate phosphorylation using fluorescence-labelled peptides as substrate at 420 uM after 90 mins by microfluidic peptide phosphorylation assay
Serine/threonine-protein kinase MARK1 (Homo sapiens), sequence (Q9P0L2 whole entry, looked up): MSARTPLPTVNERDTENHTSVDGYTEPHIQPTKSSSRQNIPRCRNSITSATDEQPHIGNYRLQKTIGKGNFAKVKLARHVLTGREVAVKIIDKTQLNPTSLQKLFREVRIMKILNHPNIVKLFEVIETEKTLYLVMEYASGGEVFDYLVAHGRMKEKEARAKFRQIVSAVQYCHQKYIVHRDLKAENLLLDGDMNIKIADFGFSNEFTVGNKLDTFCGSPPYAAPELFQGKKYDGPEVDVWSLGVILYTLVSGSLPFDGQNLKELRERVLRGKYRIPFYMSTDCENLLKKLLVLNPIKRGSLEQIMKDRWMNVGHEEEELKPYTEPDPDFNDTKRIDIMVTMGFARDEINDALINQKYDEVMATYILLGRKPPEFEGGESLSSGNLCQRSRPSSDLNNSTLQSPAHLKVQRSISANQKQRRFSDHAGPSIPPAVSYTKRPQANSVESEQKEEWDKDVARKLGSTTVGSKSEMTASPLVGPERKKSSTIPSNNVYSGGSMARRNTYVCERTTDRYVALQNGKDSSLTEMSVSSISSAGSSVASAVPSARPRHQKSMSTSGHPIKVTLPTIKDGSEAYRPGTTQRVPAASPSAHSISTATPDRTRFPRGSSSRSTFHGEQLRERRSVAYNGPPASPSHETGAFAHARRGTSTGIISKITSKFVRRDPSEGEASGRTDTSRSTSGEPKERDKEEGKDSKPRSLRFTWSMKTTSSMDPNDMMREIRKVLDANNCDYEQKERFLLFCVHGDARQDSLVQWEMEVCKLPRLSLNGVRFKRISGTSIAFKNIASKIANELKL

[6] = molecular target: Mitogen-activated protein kinase 1 (Homo sapiens) (UniProt P28482); assay: Inhibition of human full length ERK2 expressed in Escherichia coli cell assessed as substrate phosphorylation using fluorescence-labelled peptides as substrate at 95 uM after 90 mins by microfluidic peptide phosphorylation assay
Mitogen-activated protein kinase 1 (Homo sapiens), sequence (P28482 whole entry): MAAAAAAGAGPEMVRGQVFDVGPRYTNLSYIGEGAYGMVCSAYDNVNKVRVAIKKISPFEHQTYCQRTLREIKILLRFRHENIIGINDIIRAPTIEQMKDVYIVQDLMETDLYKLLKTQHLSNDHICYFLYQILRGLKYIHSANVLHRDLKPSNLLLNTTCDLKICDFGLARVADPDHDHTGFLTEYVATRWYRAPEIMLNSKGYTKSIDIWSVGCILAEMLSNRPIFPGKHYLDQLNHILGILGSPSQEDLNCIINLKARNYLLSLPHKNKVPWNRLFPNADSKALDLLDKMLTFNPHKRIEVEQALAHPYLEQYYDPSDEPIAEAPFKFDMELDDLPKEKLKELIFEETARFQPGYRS

[7] = species: Homo sapiens; assay: Inhibition of human full length PKA expressed in baculovirus assessed as substrate phosphorylation using fluorescence-labelled peptides as substrate at 95 uM after 90 mins by microfluidic peptide phosphorylation assay
[8] = molecular target: RAF proto-oncogene serine/threonine-protein kinase (Homo sapiens) (UniProt P04049); assay: Inhibition of human truncated c-Raf expressed in baculovirus assessed as substrate phosphorylation using fluorescence-labelled peptides as substrate at 9 uM after 90 mins by microfluidic peptide phosphorylation assay
RAF proto-oncogene serine/threonine-protein kinase (Homo sapiens), sequence (P04049 whole entry, the tested form may be a part): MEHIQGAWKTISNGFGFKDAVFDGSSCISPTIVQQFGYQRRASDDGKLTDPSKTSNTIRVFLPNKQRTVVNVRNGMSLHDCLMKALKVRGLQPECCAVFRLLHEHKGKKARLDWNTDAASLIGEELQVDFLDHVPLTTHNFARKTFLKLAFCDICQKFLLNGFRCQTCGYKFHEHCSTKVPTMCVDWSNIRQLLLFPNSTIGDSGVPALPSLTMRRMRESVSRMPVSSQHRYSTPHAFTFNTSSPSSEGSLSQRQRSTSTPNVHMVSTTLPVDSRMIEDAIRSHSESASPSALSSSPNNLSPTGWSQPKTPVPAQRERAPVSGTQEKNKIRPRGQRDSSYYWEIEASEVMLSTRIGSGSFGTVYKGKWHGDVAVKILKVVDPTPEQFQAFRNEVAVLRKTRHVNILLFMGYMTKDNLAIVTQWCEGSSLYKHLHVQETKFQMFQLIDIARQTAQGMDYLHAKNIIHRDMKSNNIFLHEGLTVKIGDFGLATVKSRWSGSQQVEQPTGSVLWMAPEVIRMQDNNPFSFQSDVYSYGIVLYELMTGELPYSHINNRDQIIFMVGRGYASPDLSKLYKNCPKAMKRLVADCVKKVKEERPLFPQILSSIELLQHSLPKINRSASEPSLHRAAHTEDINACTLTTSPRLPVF

[9] = molecular target: RAC-alpha serine/threonine-protein kinase (Homo sapiens) (UniProt P31749); details: 1000 uM
RAC-alpha serine/threonine-protein kinase (Homo sapiens), sequence (P31749 whole entry, the tested form may be a part): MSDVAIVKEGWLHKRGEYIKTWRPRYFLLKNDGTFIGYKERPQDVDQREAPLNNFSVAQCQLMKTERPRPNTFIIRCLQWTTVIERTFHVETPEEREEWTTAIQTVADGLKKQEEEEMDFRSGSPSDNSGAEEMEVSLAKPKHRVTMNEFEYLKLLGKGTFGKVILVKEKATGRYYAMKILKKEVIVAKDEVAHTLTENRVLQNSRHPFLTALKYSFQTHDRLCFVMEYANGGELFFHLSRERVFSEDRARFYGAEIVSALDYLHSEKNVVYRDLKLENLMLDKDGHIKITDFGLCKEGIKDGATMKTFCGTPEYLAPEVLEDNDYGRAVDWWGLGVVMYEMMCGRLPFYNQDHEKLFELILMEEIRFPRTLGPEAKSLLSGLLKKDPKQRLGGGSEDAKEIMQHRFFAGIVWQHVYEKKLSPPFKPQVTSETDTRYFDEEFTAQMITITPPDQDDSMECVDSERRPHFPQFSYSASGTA
Description: Inhibition of human AKT1 catalytic domain expressed in baculovirus assessed as substrate phosphorylation using fluorescence-labelled peptides as substrate at 1000 uM after 90 mins by microfluidic peptide phosphorylation assay

[10] = molecular target: Fibroblast growth factor receptor 1 (Homo sapiens) (UniProt P11362); assay: Inhibition of human FGFR1 catalytic domain expressed in baculovirus assessed as substrate phosphorylation using fluorescence-labelled peptides as substrate at 8 uM after 90 mins by microfluidic peptide phosphorylation assay
Fibroblast growth factor receptor 1 (Homo sapiens), sequence (P11362 22-822 limits assumed): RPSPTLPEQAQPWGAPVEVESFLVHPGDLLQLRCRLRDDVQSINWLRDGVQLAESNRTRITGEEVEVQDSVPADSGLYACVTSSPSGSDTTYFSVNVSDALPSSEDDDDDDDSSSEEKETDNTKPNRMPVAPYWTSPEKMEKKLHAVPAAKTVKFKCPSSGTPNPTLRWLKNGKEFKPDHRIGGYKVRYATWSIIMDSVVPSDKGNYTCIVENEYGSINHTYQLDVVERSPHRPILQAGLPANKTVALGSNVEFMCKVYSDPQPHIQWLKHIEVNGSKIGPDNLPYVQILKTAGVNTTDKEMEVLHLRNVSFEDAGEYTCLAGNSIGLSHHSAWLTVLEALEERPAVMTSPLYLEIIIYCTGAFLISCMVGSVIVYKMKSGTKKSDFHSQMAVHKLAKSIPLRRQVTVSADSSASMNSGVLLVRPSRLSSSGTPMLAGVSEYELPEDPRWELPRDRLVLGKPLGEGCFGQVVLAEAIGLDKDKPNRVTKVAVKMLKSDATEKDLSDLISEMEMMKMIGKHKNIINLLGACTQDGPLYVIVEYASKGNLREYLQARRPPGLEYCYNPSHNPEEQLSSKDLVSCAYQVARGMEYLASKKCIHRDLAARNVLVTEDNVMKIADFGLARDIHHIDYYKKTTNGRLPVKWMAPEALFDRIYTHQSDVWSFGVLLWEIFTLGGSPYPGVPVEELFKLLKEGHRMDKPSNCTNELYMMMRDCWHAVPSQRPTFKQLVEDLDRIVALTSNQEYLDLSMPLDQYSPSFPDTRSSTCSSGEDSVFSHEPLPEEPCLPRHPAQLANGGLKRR

[11] = molecular target: T3, Serine/threonine-protein kinase BRSK1 (Homo sapiens); assay: Inhibition of human full length BRSK1 expressed in baculovirus assessed as substrate phosphorylation using fluorescence-labelled peptides as substrate at 0.1 uM after 90 mins by microfluidic peptide phosphorylation assay
[12] = molecular target: Protein kinase C gamma type (Homo sapiens) (UniProt P05129); assay: Inhibition of human truncated PKC gamma expressed in baculovirus assessed as substrate phosphorylation using fluorescence-labelled peptides as substrate at 0.1 uM after 90 mins by microfluidic peptide phosphorylation assay
[13] = molecular target: Protein kinase C beta type (Homo sapiens) (UniProt P05771); assay: Inhibition of human truncated PKC beta1 expressed in baculovirus assessed as substrate phosphorylation using fluorescence-labelled peptides as substrate at 0.1 uM after 90 mins by microfluidic peptide phosphorylation assay

Protein kinase C beta type (Homo sapiens), sequence (P05771 2-671 limits assumed): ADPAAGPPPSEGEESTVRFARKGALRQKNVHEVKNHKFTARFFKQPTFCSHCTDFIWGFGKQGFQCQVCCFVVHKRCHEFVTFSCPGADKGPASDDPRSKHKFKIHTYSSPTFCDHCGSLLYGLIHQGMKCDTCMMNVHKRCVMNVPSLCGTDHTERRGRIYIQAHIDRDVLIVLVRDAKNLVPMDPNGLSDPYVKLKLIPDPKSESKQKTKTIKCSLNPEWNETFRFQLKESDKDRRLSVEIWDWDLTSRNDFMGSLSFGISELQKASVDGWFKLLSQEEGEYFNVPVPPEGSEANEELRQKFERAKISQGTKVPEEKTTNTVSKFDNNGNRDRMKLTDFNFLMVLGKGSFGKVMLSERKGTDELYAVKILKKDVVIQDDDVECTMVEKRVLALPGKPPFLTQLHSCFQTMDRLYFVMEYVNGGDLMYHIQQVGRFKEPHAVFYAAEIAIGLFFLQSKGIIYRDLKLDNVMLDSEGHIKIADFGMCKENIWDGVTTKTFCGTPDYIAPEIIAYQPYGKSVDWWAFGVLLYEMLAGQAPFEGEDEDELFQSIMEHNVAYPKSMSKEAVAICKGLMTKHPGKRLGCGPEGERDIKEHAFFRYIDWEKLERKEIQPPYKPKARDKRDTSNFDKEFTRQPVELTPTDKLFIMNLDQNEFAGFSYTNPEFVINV

NC1(Cc2ccc(Cl)cc2)CCN(c2ncnc3[nH]ccc23)CC1
inhibition [1]: 0%
inhibition [2]: 0%

CNCc1ccc(-c2ncnc3[nH]cnc23)cc1
inhibition [3]: 0%

Clc1ccc(C2(c3ccc(-c4ncnc5[nH]cnc45)cc3)CCNCC2)cc1
inhibition [4]: 11%

c1nc(N2CCOCC2)c2nc[nH]c2n1
inhibition [5]: 4.5%

NCCc1ccc(-c2ncnc3[nH]cnc23)cc1
inhibition [6]: 55.5%
inhibition [7]: 97.5%

NCC1CN(c2ncnc3[nH]c4cnccc4c23)CCO1 (stereo not drawn)
inhibition [8]: 7.5%

c1cnc2[nH]ccc2c1
inhibition [9]: 65.5%

NCC1CCN(c2ncnc3[nH]ccc23)CC1
inhibition [10]: 36.5%

C[C@H](CN(C)C)Oc1nc(Nc2cc3cccc(Cl)c3cn2)cnc1C#N
inhibition [11]: 16.5%
inhibition [12]: 6%
inhibition [13]: 3%
